Results taken from US8648045B2, “VDAC1 compositions and methods of use thereof for regulating apoptosis” (Ben Gurion University of the Negev Research and Development …, priority 2005, dated 2014).

What was measured:
U937 cells = experiment: Apoptotic cell death of U937 cells transfected with native or mutated mVDAC1, with/without RuR (acridine orange/ethidium bromide staining); assay type: cell-based, human
Procedure: Logarithmically-growing U937 cells were resuspended in RPMI 1640 supplemented with 10% FCS, 100 U/ml penicillin and […] streptomycin at a concentration of 2.5×10^7 cells/ml. Cells were transfected to express rat or murine VDAC1 using the vectors pEGFP, pEGFP-VDAC1, pEGFP-E72Q-mVDAC1, pE-mVDAC1 or pE-E72Q-mVDAC1. Transfection of the U937 cells was performed by electroporation with a single pulse from a Bio-Rad micropulser II with a capacitance extender unit (200 V, […]). Cells were incubated on ice for 10 min before and after transfection, and then resuspended in 20 ml of RPMI 1640 supplemented with 10% FCS, 1 mM l-glutamine, 100 U/ml penicillin and […] streptomycin. […] GFP-positive cells were viewed under a microscope using a blue filter.
Cells were plated at a density of 5.4×10^4 cells/cm^2 in 24-well plates, washed once with PBS and placed in serum-free medium. Cells were then incubated with or without RuR or Ru360. Cells were also treated with […] staurosporine (STS) to induce apoptosis and analyzed for viability 3, 5 and 7 hrs after STS addition. Treatments with curcumin (120 μM) or As2O3 (20 μM) were carried out for 48 hrs.
Fifty six (56) hr after transfection, cells were exposed for 20 hr to RuR (1 μM) and cell viability was analyzed using acridine orange/ethidium bromide staining. In each independent experiment, approximately 250 cells were counted for each including early and late apoptotic cells. Data shown in FIG. 5 and Table 2 are the mean±SEM (n=3).

E72Q-mVDAC1 = target: T1, E72Q-mVDAC1 (Mus musculus, UniProt Q60932, E72Q); experiment: VDAC channel recording in planar lipid bilayer (PLB); assay type: biochemical; conditions: PLB, 0 mV to −20 mV; all ten experiments
T1 construct: made in house; host or cells: yeast (purified from mitochondria of yeast expressing mutated mVDAC1)
Procedure: (§1) Native and mutated mVDAC1 were extracted with lauryldimethylamine N-oxide (LDAO) from mitochondria isolated from yeast expressing various VDACs, and purified by chromatography on hydroxyapatite followed by carboxymethyl (CM)-cellulose where LDAO was replaced by β-OG (β-octylglucoside).
(§2) Reconstitution of purified VDAC into a planar lipid bilayer (PLB) multi-channel current recording and data analyses were carried as follows. Briefly, PLB were prepared from soybean asolactin dissolved in n-decane (50 mg/ml) in a chamber containing 10 mM HEPES/KOH pH 7.4 and 0.5 or 1M NaCl (cis/trans). Only PLBs with a resistance greater than 100 GΩ were used. Purified VDAC (about 1 ng) was added to the chamber defined as the cis side. After one or a few channels inserted into the PLB, excess protein was removed by perfusion of the cis chamber with 20 volumes of a solution (with the same composition as before perfusion), in order to prevent further protein incorporation. Currents were recorded under voltage-clamp mode using a Bilayer Clamp amplifier (Warner Instrument, USA). The currents were measured with respect to the trans side of the membrane (ground). The currents were low-pass filtered at 1 kHz, using a Bessal filter (Frequency Devices, USA) and digitized on-line using a Digidata 1200 interface board and pCLAMP 6 software (Axon Instruments). Sigma Plot 2000 scientific software was used for data analyses. Experiments were performed at 23-25° C.
(§3) FIG. 1A: Purified recombinant native or E72Q-mutated mVDAC1 was reconstituted into a PLB (planar lipid bilayer) in symmetrical solutions of 0.5 M NaCl. Currents through VDAC1 channel in response to a voltage step from zero to −20 mV were recorded before and 5 min after the addition of HK-I (28.6 mU/ml). The dashed lines indicate the zero-current level. […] FIG. 1C: Cytochrome c release was assayed, using a monoclonal anti-cytochrome c antibody, in the absence or the presence of HK-I (1 U/ml), chymotrypsin-treated HK-I (1 U/ml) or CsA (10 micro M).
(§4) RuR, known to interact with several Ca^2+ binding proteins and to inhibit Ca^2+ transport in mitochondria, inhibited channel activity of native but not of E72Q-mutated VDAC1 (FIG. 5E). Purified recombinant native and E72Q-mVDAC1 variant were reconstituted into a planar lipid bilayer (PLB) and the currents produced in response to voltages stepped from a holding potential of 0 mV to −20 mV were recorded. […] The level of inhibition calculated from […] different experiments was 89.2±2.8% (mean±SD, n=9). In contrast, the channel activity of E72Q-mVDAC1 was not inhibited by RuR in all ten experiments.

[1] = target: T2, recombinant native mVDAC1 (Mus musculus, UniProt Q60932); experiment: as above; assay type: biochemical; conditions: RuR; PLB, voltage stepped 0 mV to −20 mV; mean±SD, n=9
T2 construct: made in house; host or cells: yeast (purified from mitochondria of yeast expressing mVDAC1)
Procedure: as §1, §2, §3, §4

[2] = tested on: permeability transition pore (PTP); experiment: PTP opening monitored by Ca2+ accumulation and mitochondrial swelling; assay type: biochemical, rat; conditions: LP1 0.1 mM or 0.3 mM; brain HK-I 0.25 U/ml pre-incubated 10 min with LP1
Procedure: Ca^2+ uptake by freshly prepared rat liver mitochondria (0.5 mg/ml) was assayed for 1 to 20 minutes at 30° C. in the presence of 225 mM mannitol, 75 mM sucrose, 120 μM CaCl2 (containing 3×10^4 cpm/nmol [^45Ca^2+]), 5 mM HEPES/KOH, 5 mM succinate and 0.1 mM Pi, pH 7.0. Uptake of ^45Ca^2+ was terminated by rapid Millipore filtration followed by a wash with 5 ml of 150 mM KCl.
Ca^2+-induced mitochondria large amplitude swelling was assayed in freshly-prepared mitochondria under the same conditions as for Ca^2+ accumulation, except that the temperature was 24° C. Cyclosporine A (CsA)-sensitive mitochondrial swelling was initiated upon addition of Ca^2+ (0.2 mM) to the sample. Absorbance changes at 520 nm were monitored every 15-20 sec with an Ultraspec 2100 spectrophotometer.
The failure of non-binding species of HK, such as yeast HK, or trypsin- or chymotrypsin-treated HK-I (FIG. 2D) to prevent PTP opening, confirmed the specificity of the HK-I effect, and of the requirement of the HK-I N-terminal region for its interaction with VDAC.
Mitochondrial swelling was assayed in the absence (control ●) or the presence of HK-I (gray ●) and in presence HK-I pre-incubated with peptide LP1. Mitochondrial swelling was assayed as in FIG. 2 in the absence and the presence of peptide LP1 (0.1 mM or 0.3 mM), brain HK-I (0.25 U/ml) or with HK-I pre-incubated for 10 min with LP1. […]

mitochondrial bound HK-I = target: T3, mitochondrial bound HK-I (Rattus norvegicus, UniProt P05708); experiment: Detachment of mitochondria-bound HK-I; assay type: biochemical; conditions: rat brain mitochondria; HK-I activity in the supernatant
T3 construct: from tissue; host or cells: rat brain mitochondria
T3 sequence (P05708 1-918): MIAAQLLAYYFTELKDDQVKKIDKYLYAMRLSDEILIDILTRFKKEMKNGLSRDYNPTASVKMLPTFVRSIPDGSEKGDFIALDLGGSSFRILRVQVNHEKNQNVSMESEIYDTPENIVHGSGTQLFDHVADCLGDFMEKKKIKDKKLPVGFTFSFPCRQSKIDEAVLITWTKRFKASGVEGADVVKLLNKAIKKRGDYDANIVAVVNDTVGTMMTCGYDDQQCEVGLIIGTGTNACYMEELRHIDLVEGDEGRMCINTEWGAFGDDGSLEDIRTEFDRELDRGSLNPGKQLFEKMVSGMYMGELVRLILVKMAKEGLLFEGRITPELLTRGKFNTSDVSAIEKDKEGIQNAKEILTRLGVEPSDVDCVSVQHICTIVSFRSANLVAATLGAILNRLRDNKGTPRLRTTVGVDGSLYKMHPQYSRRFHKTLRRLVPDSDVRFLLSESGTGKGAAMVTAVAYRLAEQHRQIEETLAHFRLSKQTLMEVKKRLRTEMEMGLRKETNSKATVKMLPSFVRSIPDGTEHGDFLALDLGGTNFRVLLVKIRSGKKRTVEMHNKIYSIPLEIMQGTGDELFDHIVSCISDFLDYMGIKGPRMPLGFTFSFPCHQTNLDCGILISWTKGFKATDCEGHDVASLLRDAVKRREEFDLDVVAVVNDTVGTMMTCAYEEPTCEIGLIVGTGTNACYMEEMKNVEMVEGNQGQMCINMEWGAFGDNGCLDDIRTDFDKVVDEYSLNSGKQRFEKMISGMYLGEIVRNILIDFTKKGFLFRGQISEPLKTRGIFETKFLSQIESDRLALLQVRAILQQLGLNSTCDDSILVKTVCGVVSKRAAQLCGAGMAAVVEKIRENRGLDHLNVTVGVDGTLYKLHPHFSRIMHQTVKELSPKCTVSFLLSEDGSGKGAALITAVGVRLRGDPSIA

T2 sequence (Q60932 14-296 limits assumed): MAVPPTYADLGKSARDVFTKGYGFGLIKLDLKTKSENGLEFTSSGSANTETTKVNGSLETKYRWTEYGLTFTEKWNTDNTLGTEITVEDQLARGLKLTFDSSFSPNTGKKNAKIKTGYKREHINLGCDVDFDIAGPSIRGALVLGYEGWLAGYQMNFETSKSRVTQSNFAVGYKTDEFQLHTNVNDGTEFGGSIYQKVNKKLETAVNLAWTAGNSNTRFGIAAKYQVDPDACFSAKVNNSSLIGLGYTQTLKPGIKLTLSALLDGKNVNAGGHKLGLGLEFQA
T1 sequence (Q60932 14-296 E72Q limits assumed): as the sequence (Q60932 14-296 limits assumed) above, with E59Q counted along it

detachment of mitochondria-bound HK-I (mitochondrial bound HK-I) | Compound | Apoptotic cells, % +RuR (U937 cells; Control (non-transfected) U937 cells, RuR 1 μM) [%] | effect on apoptotic death in control or plasmid-transfected cells (U937 cells; RuR) | protective effect of RuR on VDAC1 over-expression-induced cell death (U937 cells; cells expressing E72Q-mVDAC1, E72Q-mVDAC1-GFP or E65Q-mVDAC1) | increase in the total level of VDAC1 protein (U937 cells; cells expressing native mVDAC1 exposed to RuR) | protection against apoptotic cell death (U937 cells; cells over-expressing VDAC1 or VDAC1-GFP, 1 μM RuR for 18 hr or 5 μM RuR for 5 hr) | inhibition of channel activity by RuR (E72Q-mVDAC1) | level of inhibition of channel activity [1] [%] | effect on HK-I prevention of PTP opening [2]
– | N.N.N.N.N.N.N.N.N.N.N.N.N.N.[Cl-].[Cl-].[Cl-].[Cl-].[Cl-].[Cl-].[O-2].[O-2].[Ru+3].[Ru+3].[Ru+4] [RuR, ruthenium red] | 9.1 ± 2.1 | had no effect or even slightly increased apoptotic death | not observed | over 5 fold | 64-72% | not inhibited | 89.2±2.8 | –
able to release mitochondrial bound HK-I | WTEYGLTFTEKWNTD [Peptide LP1, 15 amino acid peptide derived from the first cytosolic β-loop of VDAC1, amino acids 63-78] | – | – | – | – | – | – | – | eliminates the HK-I prevention of PTP opening
